Results published in patent publication US20180258180A1, “COMBINATION THERAPY INVOLVING ANTIBODIES AGAINST CLAUDIN 18.2 FOR TREATMENT OF CANCER” (Ganymed Pharmaceuticals AG, priority 2012, published 2018).

Legend:
NUGC-4 xenografts = experiment: Biodistribution of Dyelight 680-labeled antibodies in NUGC-4 xenografted nude mice; settings: live imaging
[1] = test system: NCI-N87~CLDN18.2 xenograft tumors; experiment: Combination of IMAB362 and EOF regimen on NCI-N87~CLDN18.2 xenografts; assay type: in vivo, nude mice
Procedure: NCI-N87˜CLDN18.2 xenograft tumors were inoculated by injection of 1×10^7 NCI-N87˜CLDN18.2 cells subcutaneous into the flank of 9 mice for each treatment group. […] IMAB362 treatment was continued weekly. Tumor size and animal health was monitored semi-weekly. […] The size of s.c. tumors was measured twice weekly (mean+SEM; *p<0.05). […] Mice were sacrificed, when tumor reached a volume of 1400 mm^3.

[2] = test system: NUGC-4 gastric cancer cells; experiment: NUGC-4 gastric tumor xenograft model; assay type: in vivo, athymic nude mice
Source text: NUGC-4 cells grow aggressively in nude mice.
Tumor sizes were monitored twice weekly.
When 1×10^7 tumor cells are inoculated in mice, the median survival time of untreated mice is not longer than 25 days. […] Mice were stratified size-dependently into treatment groups (FIG. 21).

CLDN18.2 = CLDN18.2 (Homo sapiens, UniProt P56856); experiment: IMAB362 binding to first extracellular domain of CLDN18.2
[3] = test system: HEK293~CLDN18.2 transfectants; experiment: Early treatment of HEK293~CLDN18.2 tumor xenografts; assay type: in vivo, nude mice; settings: 200 μg twice per week for 6 weeks
Source text: Moreover, advanced tumor treatment experiments were initiated up to 9 days after tumor cell inoculation when tumors had reached volumes of about 60-120 mm^3.
Nude mice were subcutaneously inoculated with 1×10^7 HEK293˜CLDN18.2 transfectants. Treatment of 10 mice per group started 3 days after tumor inoculation. […] Not only time to death was prolonged, but 4 of 10 mice survived the entire observation period of 210 days.

[4] = test system: NUGC-4~CLDN18.2 xenograft tumors; experiment: Combination of IMAB362 and EOF regimen on NUGC-4~CLDN18.2 xenografts; parameters: species or system nude mice; settings: mouse, in vivo
Procedure: Xenograft tumors were inoculated by injection of 1×10^7 NUGC-4˜CLDN18.2 cells subcutaneous into the flank of 10 nude mice (female, six weeks old) per treatment group. Mice were treated on day 3, 10, 17 and 24 with chemotherapeutic agents. IMAB362 treatment was continued weekly.

[5] = test system: CLDN18.2-transfected HEK293 cells; experiment: IMAB362 with ZA/IL-2 induced Vγ9Vδ2 T cells on HEK293~CLDN18.2 tumors in NSG mice; assay type: in vivo; settings: 200 μg semi-weekly, in the presence of human γδ T cells and ZA (and IL-2)
Procedure: NSG mice lack mature T cells, B cells, natural killer (NK) cells, multiple cytokine signaling pathways, and they have many defects in innate immunity, whereas the niches in the primary and secondary immunological tissues are permissive to colonization by human immune cells.
NSG mice were inoculated subcutaneously with 1×10^7˜CLDN18.2-transfected HEK293 cells. On the same day, mice received 8×10^6 human PBMCs enriched for Vγ9Vδ2 T cells, which were cultured for 14 days in ZA-supplemented medium. […] To maintain human T cells functional, IL-2 was administered semi-weekly and ZA weekly. […] In addition to 9 mice treated as described, two control groups of mice were established.

[6] = test system: NUGC-4~CLDN18.2 xenografts; experiment: NUGC-4~CLDN18.2 xenografts, IMAB362 immunotherapy; parameters: species or system mice; settings: mouse, in vivo
[7] = test system: CLDN18.2-positive (NUGC-4, KATO III) human target cell lines; experiment: IMAB362 ADCC with ZA/IL-2 expanded effector cells on CLDN18.2-positive target cell lines; assay type: cell-based
Procedure: These effector cell cultures were used in ADCC assays with CLDN18.2-positive (NUGC-4, KATO III) and negative (SK-BR-3) human target cell lines (E:T ratio 40:1). […] ADCC was measured in luciferase assays; cf. FIG. 15a. […] FIG. 15b. Same experiment as described in (a) was performed using NUGC-4 as target cells; cf. FIG. 15c. […] A purity of more than 97.0% Vγ9Vδ2 T cells in lymphocytes was obtained.

[8] = Toxicity and PK/TK profile studies (any toxicity study); assay type: in vivo, mice and cynomolgus monkeys
Source text: This compartimentalization is lost upon malignant transformation rendering the epitope drugable by IMAB362.

[9] = test system: CLDN18.2-negative HEK293 tumor cells; experiment: IMAB362 treatment of CLDN18.2-negative HEK293 tumors; parameters: species or system mice; settings: mouse, in vivo
Source text: Treatment of 9 to 10 mice per group was initiated when mean tumor volumes reached 88 mm^3 (62-126 mm^3). […] All mice in the groups treated with either PBS or isotype control died within 50-100 days. […] Three of these mice survived the entire observation period (FIG. 20). Importantly, antitumoral efficacy in vivo depends on the presence of the target on the tumor cells.

[10] = test system: NUGC-4 gastric cancer cells; experiment: IMAB362-mediated ADCC on chemotherapy pretreated NUGC-4 cells; assay type: cell-based, human; settings: NUGC-4 pretreated with 5-FU+OX, EOF or FLO for 96 hours
Procedure: IMAB362-mediated ADCC was investigated using NUGC-4 gastric cancer cells as target, which were either pretreated with 10 ng/ml 5-FU and 500 ng/ml oxaliplatin (5-FU+OX), 10 ng/ml epirubicin, 500 ng/ml oxaliplatin and 10 ng/ml 5-FU (EOF) or 10 ng/ml 5-FU, 50 ng/ml folinic acid and 500 ng/ml oxaliplatin (FLO) for 96 hours (effector:target ratio 40:1) or untreated. EC50 values were obtained from 7 healthy donors for untreated and EOF, FLO or 5-FU+OX pretreated NUGC-4 cells.

[11] = Phase I clinical study, single intravenous administration; assay type: in vivo, human
Source text: IMAB362 is in early clinical testing. A phase I clinical study has been conducted in human. […] In an ongoing phase IIa clinical study IMAB362 is given repetitively.

Substance: IMAB362: chimeric IgG1 antibody directed against CLDN18.2, developed by Ganymed Pharmaceuticals AG
- retention of labeled antibody signal 120 hours after injection (NUGC-4 xenografts): detectable in comparable intensity
- tumor growth compared to control mice ([1]; IMAB362 800 μg weekly, EOF i.p. day 4, 11, 18, 25): highly significant suppressed tumor growth
- median survival ([1]; saline control 59 days): 76 days
- tumor growth compared to controls ([2]; 200 μg twice weekly, starting 6 days after inoculation, p<0.05): significant inhibited
- median survival time ([2]; non-significantly increased, versus 25 days): 31 days
- tumor volumes at day 21 after tumor inoculation compared to control mice ([2]; p<0.05): significant smaller
- tumor growth rate ([2]; treatment initiated at mean tumor size about 109 mm^3): significantly reduce tumor growth rate
- recognition of the first extracellular domain (ECD1) of CLDN18.2 (CLDN18.2): high affinity and specificity
- mice surviving the entire observation period of 210 days [3]: 4 of 10
- survival ([3]; start 3 days after inoculation): survival benefit
- tumor growth compared to saline treated control group [4]: inhibited significantly the tumor growth
- outgrowth of CLDN18.2-positive tumors [5]: significantly inhibited and nearly abrogated
- survival [6]: significantly (p<0.05) longer survival
- tumor sizes at day 14 of treatment [6]: significant (p<0.05) smaller tumor sizes
- ADCC activity with Vγ9Vδ2 T cells isolated with >97% purity ([7]; NUGC-4 targets, day 14): retained and partly improved
- ADCC activity against CLDN18.2-positive human tumor cell lines ([7]; ZA/IL-2 cultured effector cells, E:T 40:1): Strong ADCC activity
- gastric toxicity ([8]; any toxicity study): no gastric toxicity
- adverse effects on male or female reproductive organs ([8]; in vivo): No adverse effects
- binding to tissues lacking the target ([8]; in vivo): does not bind
- immune activation and cytokine release ([8]; in vivo): does not induce
- systemic or local toxicity ([8]; repeated doses i.v., mice and cynomolgus monkeys): No signs of systemic or local toxicity
- antitumoral effects [9]: No antitumoral effects
- maximal lysis in IMAB362-mediated ADCC, pretreated versus untreated target cells [10]: higher maximal lysis
- EC50 of IMAB362-mediated ADCC on pretreated cells relative to untreated cells ([10]; E:T 40:1, 7 donors): one third
- measured tumor markers ([11]; in one patient, within 4 weeks after treatment): decreased significantly
- tolerability in patients ([11]; single i.v. administration, 33-1000 mg/m^2, observed for 28 days): very well tolerated
